# Test results reported in patent US20100215618A1, “NOVEL COMPOUNDS - 644” (Arrow Therapeutics Limited, priority 2009, published 2010).
# Like-named read-outs stand apart in the source and are kept apart here.
# Legend:
# [1] = test system: HCV genotype 1a replicon cells Htat2ANeo; assay: 1a Replicon Assay (cell-based anti-NS5a ELISA); conditions: Hepatitis C virus, 72 h
# Procedure: HCV genotype la replicon cells Htat2ANeo (University of Texas), containing neomycin phosphotransferase fusion protein and EMCV-IRES driven HCV polyprotein with cell culture adaptive mutations, and control cells, Et2AN.
# Cells were cultured at 37° C./5% CO2 and split twice a week. G418 at 0.5 mg/ml and Blastocidin at 2 mg/ml were added to the culture medium but not the assay medium.
# The culture medium consisted of DMEM with […] glucose and Glutamax (Gibco 61965-026) supplemented with 1× non-essential amino acids (Invitrogen 11140-035), 0.5 mg/ml G418 (Invitrogen 10131-027), 2 mg/ml Blastocidin (PAA) and 10% is Australian foetal calf serum (Invitrogen 10099-141).
# Replicon and control cells were trypsinised and counted. Replicon cells were diluted to 90,000 cells/ml and 100 μl of this used to seed columns 2-4, […] and 10-12 of a black, clear bottom 96-well plate for every three compounds to be tested for IC50. Control cells were diluted to 60,000 cells/ml and 100 μl of this used to seed columns 1, 5 and 9 of the plate. Well H1 was left empty as the blank. Plates were then incubated at 37° C./5% CO2 for 24 h.
# On the following day compound dilutions were prepared in medium at twice their desired final concentration in a clear round bottomed plate.
# Controls and compounds were transferred from the dilution plate to the assay plates (containing the cells) at 100 μl/well in quadruplicate wells, one well containing control cells and 3 wells containing replicon cells.
# Exception: no compound was added to row H of the plate and 100 μl of 1% DMSO was added to these instead. Plates were then incubated at 37° C. with 5% CO2 for 72 h. At the end of the incubation time, any reduction in cell viability was assayed and a cell-based enzyme linked immunosorbent assay (ELISA) was performed. The media/compound was removed from all wells and replaced with 100 μl/well serum-free media and 20 μl/well Cell Titre Blue (Promega G8081). Following incubation at 37° C./5% CO2 for 2 h plates were read on a microplate fluorometer (Molecular Devices) using an excitation of 570 nm and an emission of 590 nm The TD50, the concentration of drug required to reduce 50% of Cell Titre Blue relative to the DMSO controls, was calculated by plotting the fluorescence at 590 nm after substraction of background against drug concentration.
# The media/Cell Titre Blue was removed and plates washed in PBS and gently tapped dry before addition of 50 μL per well of 75% acetone/25% methanol mixture for 3 minutes. The fixative was then discarded and wells were washed with PBS before addition of 100 μl/well of blocking solution (2% non-fat dry milk and 0.05% Tween-20 in 0.85% NaCl). Plates were then incubated at 37° C. in a shaking incubator for 60 min. Blocking solution was discarded and 50 μl of mouse anti-NS5a antibody (Virostat 1877) at 1:100 dilution in blocking buffer was added to all wells. Plates were incubated at 37° C. in a shaking incubator for 90 min Antibody was then discarded and plates were washed 4 times by immersion in 0.85% NaCl/0.05% Tween-20. After washing plates were tapped dry gently and 50 μl of secondary antibody (Dako P0260 Rabbit anti-mouse horseradish peroxidase) at 1:1000 dilution in blocking buffer was added to the wells. Plates were incubated at 37° C. in a shaking incubator for 60 min. Antibody was discarded and plates were washed 6 times by immersion in 0.85% NaCl/0.05% Tween-20 and once in PBS. Finally, 50 μl of substrate (SigmaFast ortho-phenylene diamine dihydrochloride (OPD)) was added per well and the colorimetric reaction was allowed to proceed in the dark for 5 to 15 minutes depending on the strength or the signal. The reaction was stopped by addition of 25 μl/well of 20% sulphuric acid. Plates were read on the SpectraMax microplate reader at 490 nm fixed wavelength. […]
# [2] = test system: HCV replicon cells Huh 9B (genotype 1b); assay: 1b Replicon Assay (luciferase readout); type: cell-based; conditions: Hepatitis C virus, Huh 9B replicon cells, 72 h, luciferase activity
# Procedure: HCV replicon cells Huh 9B (ReBlikon), containing the firefly luciferase-ubiquitin-neomycin phosphotransferase fusion protein and EMCV-IRES driven HCV polyprotein with cell culture adaptive mutations.
# Cells were cultured at 37° C./5% CO2 and split twice a week. G418 at 0.5 mg/ml was added to the culture medium but not the assay medium.
# The culture medium consisted of DMEM with […] glucose and Glutamax (Gibco 61965-026) supplemented with 1× non-essential amino acids (Invitrogen 11140-035), 0.5 mg/ml G418 (Invitrogen 10131-027) and 10% Australian foetal calf serum (Invitrogen 10099-141).
# Replicon cells were trypsinised and counted. Cells were diluted to 100,000 cells/ml and 100 μl used to seed one opaque white 96-well plate (for the replicon assay) and one flat-bottomed clear plate (for the tox assay) for every five compounds to be tested for IC50. Wells G12 and H12 were left empty in the clear plate as the blank. Plates were then incubated at 37° C./5% CO2 for 24 h.
# On the following day compound dilutions were prepared in medium at twice their desired final concentration in a clear round bottomed plate. All dilutions have a final DMSO concentration of 1%.
# Controls and compounds were transferred from the dilution plates to the assay plates (containing the cells) at 100 μl/well in duplicate wells.
# Exception: no compound was added to wells A1 and A2 of either plate and 100 μl of 1% DMSO was added to these instead. Plates were then incubated at 37° C./5% CO2 for 72 h.
# At the end of the incubation time, the cells in the white plate were washed in PBS (100 μL per well) and dried by tapping before addition of 204 per well of lysis buffer (25 mM tris-phosphate, 8 mM MgCl2, 1 mM DTT, 1% Triton X-100, 15% glycerol; pH to 7.8 using KH2PO4 prior to Triton X-100 and glycerol addition). Aliquots of substrate (23.5 mM beetle luciferin (Promega E1603), 26 mM ATP (Sigma O-2060) in […] Tris buffer pH 7.8) were stored at −80° C. Prior to use, required amount of luciferin was thawed and diluted 1:50 in luciferase assay buffer (20 mM Tricine (Sigma T-0377), 1.07 mM magnesium carbonate hydroxide (Sigma M-5671), 0.1 mM EDTA (Sigma E-5134), 2.67 mM MgSO4(BDH 101514Y), 33.3 mM dithiothreitol (Sigma 150460) pH 7.8).
# After 5-60 min incubation in lysis buffer at room temperature, a plate was inserted into the luminometer and 100 μl luciferase assay reagent was added by the injector of the luminometer. The signal was measured using a 1 second delay followed by a 4 second measurement programme. The IC50, the concentration of the drug required for reducing the replicon level by 50% in relation to the untreated cell control value, was calculated from the plot of the percentage reduction of the luciferase activity vs. drug concentration.
# [3] = read-out: pIC50 1a Replicon (converted)
# [4] = read-out: pIC50 1b Replicon (converted)
SMILES,IC50 ([1]; read-out: HCV IC50 Elisa 1a),"IC50 [1, 3]",IC50 ([2]; read-out: HCV IC50 1b Replicon),"IC50 [2, 4]"
"CC(C)[C@H](N)C(=O)N1CCC[C@H]1c1ncc(-c2ccc(-c3ccc(C(=O)Nc4ccc(CN5CCS(=O)(=O)CC5)cc4)cc3)cc2)[nH]1 [Example 10, 4-[4-[2-[(2S)-1-[(2S)-2-amino-3-methyl-butanoyl]pyrrolidin-2-yl]-1H-imidazol-5-yl]phenyl]-N-[4-[(1,1-dioxo-1,4-thiazinan-4-yl)methyl]phenyl]benzamide]",320 nM,324 nM,65.2 nM,64.6 nM
"CC(C)(C)OC(=O)NCC(=O)N1CCC[C@H]1c1ncc(-c2ccc(-c3ccc(C(=O)Nc4ccc(CN5CCS(=O)(=O)CC5)cc4)cc3)cc2)[nH]1 [Example 12, tert-Butyl N-[2-[(2S)-2-[5-[4-[4-[[4-[(1,1-dioxo-1,4-thiazinan-4-yl)methyl]phenyl]carbamoyl]phenyl]phenyl]-1H-imidazol-2-yl]pyrrolidin-1-yl]-2-oxo-ethyl]carbamate]",164 nM,162 nM,106 nM,105 nM
"COC(=O)N[C@H](C(=O)N1CCC[C@@H]1c1ncc(-c2ccc(-c3ccc(C(=O)Nc4ccc(CN5CCS(=O)(=O)CC5)cc4)cc3)cc2)[nH]1)c1ccccc1 [Example 23, Methyl N-[(1S)-2-[(2R)-2-[5-[4-[4-[[4-[(1,1-dioxo-1,4-thiazinan-4-yl)methyl]phenyl]carbamoyl]phenyl]phenyl]-1H-imidazol-2-yl]pyrrolidin-1-yl]-2-oxo-1-phenyl-ethyl]carbamate]",,,109 nM,110 nM
"COC(=O)N[C@@H](C(=O)N1CCC[C@@H]1c1ncc(-c2ccc(-c3ccc(C(=O)Nc4ccc(CN5CCS(=O)(=O)CC5)cc4)cc3)cc2)[nH]1)c1ccccc1 [Example 24, Methyl N-[(1R)-2-[(2R)-2-[5-[4-[4-[[4-[(1,1-dioxo-1,4-thiazinan-4-yl)methyl]phenyl]carbamoyl]phenyl]phenyl]-1H-imidazol-2-yl]pyrrolidin-1-yl]-2-oxo-1-phenyl-ethyl]carbamate]",,,101 nM,102 nM
"CCN(CC)[C@@H](C(=O)N1CCC[C@@H]1c1ncc(-c2ccc(-c3ccc(C(=O)Nc4ccc(CN5CCS(=O)(=O)CC5)cc4)cc3)cc2)[nH]1)c1ccccc1 [Example 25, 4-[4-[2-[(2R)-1-[(2R)-2-(diethylamino)-2-phenyl-acetyl]pyrrolidin-2-yl]-1H-imidazol-5-yl]phenyl]-N-[4-[(1,1-dioxo-1,4-thiazinan-4-yl)methyl]phenyl]benzamide]",,,77.9 nM,77.6 nM
"CN(C)[C@@H](C(=O)N1CCC[C@@H]1c1ncc(-c2ccc(-c3ccc(C(=O)Nc4ccc(CN5CCS(=O)(=O)CC5)cc4)cc3)cc2)[nH]1)c1ccccc1 [Example 26, 4-[4-[2-[(2R)-1-[(2R)-2-(dimethylamino)-2-phenyl-acetyl]pyrrolidin-2-yl]-1H-imidazol-5-yl]phenyl]-N-[4-[(1,1-dioxo-1,4-thiazinan-4-yl)methyl]phenyl]benzamide]",,,55.7 nM,56.2 nM
"COC(=O)N[C@H](C(=O)N1CCC[C@H]1c1ncc(-c2cccc(-c3ccc(C(=O)Nc4ccc(CN5CCS(=O)(=O)CC5)cc4)cc3)c2)[nH]1)C(C)C [Example 33, Methyl N-[(1S)-1-[(2S)-2-[5-[3-[4-[[4-[(1,1-dioxo-1,4-thiazinan-4-yl)methyl]phenyl]carbamoyl]phenyl]phenyl]-1H-imidazol-2-yl]pyrrolidine-1-carbonyl]-2-methyl-propyl]carbamate]",,,159 nM,158 nM
"COC(=O)N[C@@H](C)C(=O)N1CCC[C@H]1c1ncc(-c2cccc(-c3ccc(C(=O)Nc4ccc(CN5CCS(=O)(=O)CC5)cc4)cc3)c2)[nH]1 [Example 34, Methyl N-[(1S)-2-[(2S)-2-[5-[3-[4-[[4-[(1,1-dioxo-1,4-thiazinan-4-yl)methyl]phenyl]carbamoyl]phenyl]phenyl]-1H-imidazol-2-yl]pyrrolidin-1-yl]-1-methyl-2-oxo-ethyl]carbamate]",,,252 nM,251 nM
"COC(=O)N[C@H](C(=O)N1CCC[C@H]1c1ncc(-c2cccc(-c3ccc(C(=O)Nc4ccc(CN5CCS(=O)(=O)CC5)cc4)cc3)c2)[nH]1)C(C)(C)C [Example 35, Methyl N-[(1S)-1-[(2S)-2-[5-[3-[4-[[4-[(1,1-dioxo-1,4-thiazinan-4-yl)methyl]phenyl]carbamoyl]phenyl]phenyl]-1H-imidazol-2-yl]pyrrolidine-1-carbonyl]-2,2-dimethyl-propyl]carbamate]",,,129 nM,129 nM
"COC(=O)N[C@H](C(=O)N1CCC[C@H]1c1ncc(-c2cccc(-c3ccc(C(=O)Nc4ccc(CN5CCS(=O)(=O)CC5)cc4)cc3)c2)[nH]1)c1ccccc1 [Example 36, Methyl N-[(1S)-2-[(2S)-2-[5-[3-[4-[[4-[(1,1-dioxo-1,4-thiazinan-4-yl)methyl]phenyl]carbamoyl]phenyl]phenyl]-1H-imidazol-2-yl]pyrrolidin-1-yl]-2-oxo-1-phenyl-ethyl]carbamate]",,,15.6 nM,15.5 nM
"COC(=O)N[C@@H](C(=O)N1CCC[C@H]1c1ncc(-c2cccc(-c3ccc(C(=O)Nc4ccc(CN5CCS(=O)(=O)CC5)cc4)cc3)c2)[nH]1)c1ccccc1 [Example 37, Methyl N-[(1R)-2-[(2S)-2-[5-[3-[4-[[4-[(1,1-dioxo-1,4-thiazinan-4-yl)methyl]phenyl]carbamoyl]phenyl]phenyl]-1H-imidazol-2-yl]pyrrolidin-1-yl]-2-oxo-1-phenyl-ethyl]carbamate]",,,21.5 nM,21.4 nM
